Measurements reported in patent publication US10517244B2, “Method to develop herbicide-resistant sugar beet plants” (priority 2012, dated 2019).
Like-named read-outs stand apart in the source and are kept apart here.

Key:
[1] = system: stomatal guard cell protoplasts; test: Protoplasts viability under mutagenesis treatment; assay type: cell-based, sugar beet; conditions: treatment of more than 0.2% EMS
Source text: Possibly, this method further comprises the step of adding a mutagen agent to the culture of the isolated stomatal guard cell protoplasts.
Suitable mutagen agents are physical (such as UV or X-ray) exposure or exposure to chemical agents (such as Ethyl Methane Sulfonate (EMS), for instance at 0.05%, 0.1%, 0.15%, 0.2% or even at 2.5%).

[2] = system: dual mutant plant comprising SEQ.ID.NO:3 and SEQ.ID.NO:5 (NCIMB 42050); assay type: in vivo, sugar beet; conditions: even when put in composition with organic compounds; compatible with field application
Source text: The inventors then developed a mutated sugar beet plant comprising SEQ.ID.NO:3 and SEQ.ID.NO:5 (on two different alleles). Such resulting dual mutant has been deposited under the Budapest Treaty under NCIMB 42050. A plant comprising both SEQ.ID.NO:3 and SEQ.ID.NO:5 can be generated by relying on several techniques, including, for instance, a subsequent mutagenesis step applied to the single mutant NCIMB 42051.
The inventors then compared the resistance of this dual mutant plant (a mutation in one allele at amino acid 569 and a mutation in the other allele at amino acid 188) with the single mutant (a mutation at position 569) sugar beet.

[3] = system: sugar beet plants where the proline at position 188 of the ALS enzyme is substituted by a serine (Line C); test: Greenhouse trial, damage (phytotoxicity) rating after ALS inhibitor treatment, Line C; assay type: in vivo, Beta vulgaris L. ssp. vulgaris; conditions: day 14 after application at stage BBCH 14; scale 0% no damage to 100% completely killed; g/ha per herbicide
Source text: (§1) Uwe Meier, Biologische Bundesanstalt für Land und Forstwirtschaft. Subsequently, the resulting separate groups of sugar beet plants were each individually treated with an ALS inhibitor (ALS-in) in the amounts (g/ha) indicated in Table 2.
(§2) On day 14 after application of the respective ALS inhibitor, the damage (i.e. the phytotoxicity) for each sugar beet plant was rated on a scale from 0% (i.e. no damage, no phytotoxicity) to 100% (i.e. the plants were completely killed).

[4] = system: sugar beet plants comprising SEQ.ID.NO:3 and SEQ.ID.NO:5 on two different alleles (Line A); test: Greenhouse trial, damage (phytotoxicity) rating after ALS inhibitor treatment, Line A; assay type: in vivo, Beta vulgaris L. ssp. vulgaris
Protocol: Mutated sugar beet plants comprising SEQ.ID.NO:3 and SEQ.ID.NO:5 (on two different alleles) according to the present invention (as described in Example 4 above, “Line A”) were treated with different ALS inhibitors in direct comparison with sugar beet plants where the tryptophan at position 569 of the encoded ALS enzyme is substituted by a leucine (“Line B”), sugar beet plants described in WO 98/02527 where the proline at position 188 of the encoded ALS enzyme is substituted by a serine (“Line C”), and traditional variety (wild-type) sugar beet plants not having a mutation at positions 569 and 188 (“Line WT”).
Several groups of seeds of the four different mentioned sugar beet plants were sown separately in the greenhouse and grew up to stage BBCH 14 for Beta vulgaris L. ssp. vulgaris (i.e. 4 leaves (the second pair) unfolded) according to the monographie “Entwicklungsstadien mono-und dikotyler Pflanzen”, 2nd edition, 2001, ed. Uwe Meier, Biologische Bundesanstalt für Land und Forstwirtschaft. Subsequently, the resulting separate groups of sugar beet plants were each individually treated with an ALS inhibitor (ALS-in) in the amounts (g/ha) indicated in Table 2.
as §2
Additionally, typical early phenotypes of each sugar beet plants were inspected after treatment with a mixture comprising thiencarbazone-methyl and foramsulfuron.

[5] = system: traditional variety (wild-type) sugar beet plants (Line WT); test: Greenhouse trial, damage (phytotoxicity) rating after ALS inhibitor treatment, Line WT; assay type: in vivo, Beta vulgaris L. ssp. vulgaris; conditions: day 14 after application at stage BBCH 14; scale 0% no damage to 100% completely killed; g/ha per herbicide
Source text: as §1, §2

[6] = system: sugar beet plants where the tryptophan at position 569 of the ALS enzyme is substituted by a leucine (Line B); test: Greenhouse trial, damage (phytotoxicity) rating after ALS inhibitor treatment, Line B; assay type: in vivo, Beta vulgaris L. ssp. vulgaris; conditions: day 14 after application at stage BBCH 14; scale 0% no damage to 100% completely killed; g/ha per herbicide
Source text: as §1, §2

[7] = system: regenerated sugar beets having the mutated SEQ.ID.NO:3 (heterozygote); assay type: in vivo, sugar beet; conditions: Foramsulfuron 12.5 g/ha, amidosulfuron 15 g/ha, iodosulfuron 3.5 g/ha, thiencarbazone-methyl 7.5 g/ha, up to 3 applications
Source text: (§3) The inventors compared the behaviour of regenerated sugar beets having the mutated SEQ.ID.NO:3 (heterozygote for this mutation) and a wild-type (naive) sugar beet commercial variety.

[8] = system: homozygote 569/569 mutant sugar beet; conditions: WO 2012/049268; cited from earlier work
[9] = system: sugar beet mutant with proline at position 188 of ALS substituted by a serine; conditions: at the necessary dose rate; WO 98/02527 mutant; cited from earlier work
[10] = system: wild-type (naive) sugar beet commercial variety; test: ALS inhibitor treatment of wild-type sugar beets (Example 3); assay type: in vivo; conditions: Foramsulfuron 12.5 g/ha, amidosulfuron 15 g/ha, iodosulfuron 3.5 g/ha, thiencarbazone-methyl 7.5 g/ha
Source text: as §3

[11] = day 14 after application at stage BBCH 14, scale 0% no damage to 100% completely killed, g/ha per herbicide

Compound	protoplasts viability [1]	resistance of the dual mutant plant line to the herbicide [2]	damage (phytotoxicity) average rating, Line C [3] [%]	damage (phytotoxicity) average rating, Line A ([4]; in vivo) [%]	damage (phytotoxicity) average rating, Line WT [5] [%]	damage (phytotoxicity) average rating, Line B [6] [%]	resistance of the (heterozygote) mutated variety to the herbicide [7]	damage (phytotoxicity) average rating, Line A [4, 11] [%]	resistance of homozygote 569/569 mutant in field trials [8]	resistance of the (heterozygote) mutated variety to the herbicide ([7]; listed as foramsulfuron)	phytotoxicity in field trials on proline 188 serine mutant [9]	sensitivity of the wild-type (naive) plant to the herbicide [10]
CCOS(C)(=O)=O [EMS, Ethyl Methane Sulfonate]	detrimentally affected											
COc1cc(OC)nc(NC(=O)NS(=O)(=O)N(C)S(C)(=O)=O)n1 [Amidosulfuron]		good resistance	51.9	6.3	73.1	37.5	same level of resistance					
COc1cc(OC)n2nc(S(=O)(=O)Nc3c(Cl)ccc(C)c3Cl)nc2n1 [Metosulam]			69.4		79.4	40.6		13.1				
COc1cc(OC)nc(Oc2cccc(Oc3nc(OC)cc(OC)n3)c2C(=O)[O-])n1.[Na+] [Bisbyribac-Na]			71.7		80.0	38.1		17.5				
COc1cc(OC)nc(NC(=O)NS(=O)(=O)c2cc(NC=O)ccc2C(=O)N(C)C)n1 [Foramsulfuron]			77.5		80.0	45.6	good resistance	26.9	good resistance	best resistance	some phytotoxicity	
COC(=O)c1csc(C)c1S(=O)(=O)NC(=O)n1nc(OC)n(C)c1=O [Thiencarbazone-methyl]		good resistance	37.5		84.4	35.6	about the same level of resistance as for iodosulfuron	8.1				very sensitive
